Results: patent US8545886B2, “Extended release tablet formulations of flibanserin and method for manufacturing the same” (Boehringer Ingelheim International GmbH, priority 2006, dated 2013)
≈ marks a conversion by molar mass, not a printed value.

Assay: Solubility of flibanserin in aqueous media
Format: physicochemical
From the text: In acidic environment compounds such as flibanserin are usually very well water soluble whereas in neutral or basic environment these drugs can be practically insoluble. […] These physicochemical properties of basic compounds make it difficult to develop extended release dosage forms. There is a natural pH gradient from the acidity of the stomach where the pH of physiological fluids are typically around 1-2, through the weakly acidic duodenum to the virtually neutral environment of the small intestine where the pH is in the range of 5-8.

## O=c1[nH]c2ccccc2n1CCN1CCN(c2cccc(C(F)(F)F)c2)CC1 [flibanserin, 1,3-dihydro-1-[2-[4-[3-(trifluoromethyl)phenyl]-1-piperazinyl]ethyl]-2H-benzimidazole-2-one]
Aqueous buffer, in 0.05 M phosphate buffer pH 6.8
  solubility: 2 µg/mL (≈ 0.00512 mM)
Simulated gastric fluid, in 0.1 N HCl
  solubility: 6200 µg/mL (≈ 15.9 mM)
